According to patent US20070099857A1, “Methods and means for inhibiting fever” (priority 2003, published 2007):

Legend:
[1] = PGE2-induced febrile response after intracerebroventricular injection, telemetric body temperature; format: in vivo, mice; settings: 4 nmol PGE2 intracerebroventricular
Description: We confirmed the absence of overt physiological signaling defects by ensuring that PGE2-evoked (the missing product in mPGESl1^−/− mice that is generated following LPS challenge) pyresis was indeed intact in mPGES1^−/− mice. We performed intracerebroventricular injections of PGE2 (4 nmol in 2 μl artificial cerebrospinal fluid) and then monitored using telemetry the body temperature in awake and unrestrained animals. […] Thus, a pronounced temperature increase was seen almost immediately after the PGE2 injection. It reached its peak after 30 minutes and lasted for about 1.5 hour. To determine that the elicited febrile response was due to specific activation of PGE2 receptors and not represented an unspecific response, we injected the same amount of PGE2 into EP3 receptor^−/− mice as we had injected into mPGES-1^−/− mice.
Telemetric temperature recordings: One week prior to each experiment, a temperature transmitter (Data Science International) was implanted into the peritoneal cavity of each mouse. Recordings were made via a receiver located beneath the cage and the data were fed into a computer. Recordings started at least one hour prior to surgery or injection, and were obtained every second minute throughout the entire session.
Intracerebroventricular injections of PGE2: Mice were mounted in a stereotaxic frame under anesthesia with 1% isoflurane in a 30/70% mixture of O2/N2, and kept at 37° C. through a feedback controlled heating pad. A drill hole was made in the skull through which a 29 gauge (o.d.) needle connected by a silicon tube to a Hamilton syringe was inserted into the lateral ventricle (0.5 mm posterior to Bregma, 1 mm lateral to midline, and 2.5 mm vertical to the skull surface), and 4 nmol PGE2 in 2 μl artificial cerebrospinal fluid was injected during 1 min. Control injection consisted of artificial cerebrospinal fluid. Two minutes after the end of the injection, the needle was removed, the skin sutured, and the gas anesthesia turned off. All animals were awake within 5 min after injection and were immediately returned to their home cage for resumed body temperature recordings.

[2] = target: T1, mPGES-1 (Homo sapiens, UniProt O14684); settings: literature values (Thoren et al. 2000; Mancini et al. 2001; Quraishi et al. 2002); read-out: IC50 for inhibition of mPGES-1; cited from earlier work
T1 sequence (O14684 1-152): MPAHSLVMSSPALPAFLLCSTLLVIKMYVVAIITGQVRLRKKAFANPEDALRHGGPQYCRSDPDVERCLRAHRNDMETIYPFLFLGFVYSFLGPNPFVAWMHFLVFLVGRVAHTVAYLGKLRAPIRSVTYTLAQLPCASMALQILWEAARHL

Row | Structure (SMILES) | duration of temperature increase [1] | time to peak of temperature increase after injection [1] [min] | febrile response ([1]; EP3 receptor−/− mice) | temperature elevation ([1]; mPGES+/+ mice) | febrile response ([1]; mPGES-1−/− mice) | IC50 [2] [µM]
1 | CCCCC[C@H](O)/C=C/[C@H]1[C@H](O)CC(=O)[C@@H]1C/C=C\CCCC(=O)O (relative stereo) [PGE2, 11α, 15(S)-dihydroxy-9-ketoprosta-5-cis-13-trans-dienoic acid] | about 1.5 hour | 30 | did not display any febrile response | rapid and pronounced temperature elevation | rapid and strong febrile response | –
2 | CCCCCC=CCC=CC=CC=CC(SCC(NC(=O)CCC(N)C(=O)O)C(=O)NCC(=O)O)C(O)CCCC(=O)O [leukotriene C4, 5(S)-hydroxy-6(R)-S-glutathionyl-7,9-trans-11,14-cis-eicosa-tetraenoic acid] | – | – | – | – | – | 5
